Experimental data from patent publication US8450479B2, “3-substituted-4-oxo-3,4-dihydro-imidazo[5,1-d][1,2,3,5-tetrazine-8-carboxylic acid amides and their use” (Pharminox Limited, priority 2007, dated 2013).
Several values for one entry are separate records, joined by “and”; a condition that tells them apart may be missing. Identical values can stand only once. Counter-ions that a name gives are not always drawn. Like-named read-outs stand apart in the source and are kept apart here.

Columns and labels:
Experiment in all cases: MTT assay for 7-day toxicity assay
Format in all cases: cell-based
Glioma SNB19V (MGMT−) = settings: for GI50: Glioma SNB19V (MGMT−)
Protocol: (§1) The cell culture techniques were carried out in a Class II microbiological safety cabinet which was swabbed with 70% IMS in distilled water before each use. […] MRC-5 cells were cultured in EMEM. Cells were grown in a humidified incubator containing 5% CO2 at 37° C. Cells were sub-cultured when growth exceeded approximately 80% confluence, normally twice weekly. The medium was aspirated from the flask and approximately 0.8 mL trypsin-EDTA 1× solution added. The cells were re-incubated at 37° C. until they visibly detached from the flask. The cell suspension was then re-suspended in 5 mL medium and 0.5-1 mL of the cell suspension was transferred to a new flask (25 cm^2) with 7 mL culture medium. The cells were further incubated at 37° C. incubator. Cells were disposed after passage nearly 30 times in order to minimize phenotypic drift. New batches of cells were taken from liquid nitrogen storage by thawing rapidly (37° C. water bath) and re-suspension in a 25 cm^2 flask with 10 mL of culture medium. Two passages were allowed to resume normal growth. For long-term maintenance, viable cells at 60-80% confluence were detached by minimum amount of trypsin/EDTA and re-suspended in sterile filtered freezing medium (95% FBS, 5% DMSO), transferred to sterile cryogenic vials, and frozen overnight at −20° C. followed by −80° C. for 1-2 days and stored in liquid nitrogen for long term storage.
(§2) Most test compounds, including temozolomide, were prepared as stock solution (100 mM) in DMSO and stored at −20° C. for not more than 6 months.
(§3) Glioma cell lines, SNB19 and U373, both MGMT transfected (i.e., SNB19M and U373M) and vector controls (i.e., SNB19V and U373V); colorectal carcinoma cell lines, HCT116, HT29, and DLD1; melanoma cell line, SKMEL-28; breast cell line, MCF-7; and normal human fetal lung fibroblast cell line, MRC-5; were harvested at 60-80% confluence—during the logarithmic phase of growth.
(§4) Following harvesting, cells in suspension were gently syringed through a 23 gauge needle to obtain a near-single cell suspension. The desired cell seeding densities were used and added into 96-well plates in 180 μL culture medium if only one test compound was to be added, or 160 μL if two test compounds were to be added in combination, which were allowed to attach at 37° C. (5% CO2) overnight. For the 7 day assay, the cell seeding density for different cell lines was as follows: SNB19V, SNB19M: 650 cells/well; U373V, U373M: 650 cells/well; SNB19VR, U373VR: 650 cells/well; HCT116, DLD-1, SKMEL-28, MRC-5, MCF-7: 400 cells/well.
(§5) The two peripheral lanes were used as blank wells (cell free) and filled with 200 μL of medium in order to minimise medium evaporation from the plate. A separate time zero (T0) plate was set up alongside other plates. Serial dilutions in tissue culture medium of a 100 mM stock of test compound in DMSO were prepared immediately before each assay to ten times the final concentrations required, and then 20 μL was added to each well (200 μL total media per well) to achieve final concentrations of 0.5 μM, 1 μM, 5 μM, 10 μM, 50 μM, 100 μM, 500 μM, and 1000 μM. A minimum of four wells received the same test compound concentration. To control wells, including those in the T0 plate, 20 μL of medium was added. […] A separate plate treated in the same way, but free of test compound, was used as a measure of cell viability at the time of drug addition (day 0).
(§6) After incubation at 37° C., 5% CO2 for 7 days (or immediately for the day 0 plate), cell viability was quantified using the MTT assay. 50 μL of sterile filtered MIT (3-(4,5-dimethylthiazol-2-yl)-2,5-diphenyltetrazolium bromide) (2 mg/mL in phosphate buffered saline) were added to each well (final concentration 0.4 mg/mL) and the plates were re-incubated for 4 hours to allow metabolic conversion of MTT by dehydrogenases in viable cells to insoluble formazan crystals.
(§7) The intensity of absorbance is directly proportional to cell viability.

Glioma U373V (MGMT low) = settings: Glioma U373V (MGMT low)
Protocol: as §1, §2, §3, §4, §5, §6, §7

Glioma SNB19M (MGMT+) = settings: for GI50: Glioma SNB19M (MGMT+)
Protocol: as §1, §2, §3, §4, §5, §6, §7

Glioma U373M (MGMT+) = settings: Glioma U373M (MGMT+)
Protocol: as §1, §2, §3, §4, §5, §6, §7

[1] = 168 h, 7-day MTT, single determinations, read-out: GI50
[2] = 7-day MTT, single determinations, read-out: GI50
[3] = 7-day MTT, single determinations, hydrobromide, read-out: GI50

SMILES	GI50 (Glioma SNB19V (MGMT−); [1]) [µM]	GI50 (Glioma SNB19V (MGMT−); [2])	GI50 (Glioma U373V (MGMT low); [1]) [µM]	GI50 (Glioma U373V (MGMT low); [2]) [µM]	GI50 (Glioma SNB19M (MGMT+); [1]) [µM]	GI50 (Glioma SNB19M (MGMT+); [2]) [µM]	GI50 (Glioma U373M (MGMT+); [1]) [µM]	also measured
CSCCn1nnc2c(C(N)=O)ncn2c1=O [KK-002, 3-(2-Methylsulfanyl-ethyl)-4-oxo-3,4-dihydro-imidazo[5,1-d][1,2,3,5]tetrazine-8-carboxylic acid amide]	288	321 µM	152	300	304	259	229	GI50 (Glioma U373M (MGMT+); [2]): 286 µM
NC(=O)c1ncn2c(=O)n(Cc3cccs3)nnc12 [CC-002, 4-oxo-3-(thiophen-2-ylmethyl)-3,4-dihydroimidazo[5,1-d][1,2,3,5]tetrazine-8-carboxamide]	76.7	52 µM	149	81.4	63.6	54.7	96.8	GI50 (Glioma U373M (MGMT+); [2]): 52.2 µM
CCOP(=O)(Cn1nnc2c(C(N)=O)ncn2c1=O)OCC [VV-001, (8-Carbamoyl-4-oxo-imidazo[5,1-d][1,2,3,5]tetrazin-3-ylmethyl)-phosphonic acid diethyl ester]	–	–	–	–	–	–	–	GI50 (Glioma SNB19V (MGMT−)): 73.6 µM and 63.4 µM; activity compared with TMZ, in words (Glioma SNB19V (MGMT−); SNB19V glioma cell line): more active than TMZ; GI50 (Glioma U373V (MGMT low)): 306 µM and 174 µM; GI50 (Glioma SNB19M (MGMT+)): 102 µM and 85.6 µM; activity compared with TMZ, in words (Glioma SNB19M (MGMT+); SNB19M glioma cell line): more active than TMZ
COc1ccc([C@@H](C)n2nnc3c(C(N)=O)ncn3c2=O)cc1 [BB-003, (R)-3-(−1-(4-Methoxyphenyl)ethyl)-8-carbamoylimidazotetrazin-4-one]	55.8	93.7 µM	71	138	72.3	97.1	–	–
NC(=O)c1ncn2c(=O)n(CC3CCCCC3)nnc12 [GG-001, 3-Cyclohexylmethyl-8-carbamoylimidazotetrazin-4-one]	–	–	717	> 1000	831	445	–	–
CC(C)(C)OC(=O)Cn1nnc2c(C(N)=O)ncn2c1=O [LL-006, (8-Carbamoyl-4-oxo-imidazo[5,1-d][1,2,3,5]tetrazin-3-yl)-acetic acid tert-butyl ester]	–	–	–	–	–	–	–	GI50 (Glioma SNB19M (MGMT+); 168 h, 7-day MTT, single determinations): 64 µM; GI50 (Glioma SNB19M (MGMT+); 7-day MTT, single determinations): 60.5 µM and 87.2 µM
NC(=O)c1ncn2c(=O)n(Cc3ccsc3)nnc12 [CC-001, 4-oxo-3-(thiophen-3-ylmethyl)-3,4-dihydroimidazo[5,1-d][1,2,3,5]tetrazine-8-carboxamide]	79.6	117 µM	206	160	208	135	198	GI50 (Glioma U373M (MGMT+); [2]): 232 µM
Cc1cc(Cn2nnc3c(C(N)=O)ncn3c2=O)on1 [CC-004, 3-(3-Methyl-isoxazol-5-ylmethyl)-4-oxo-3,4-dihydro-imidazo[5,1-d][1,2,3,5]tetrazine-8-carboxylic acid amide]	38	54.9 µM	–	–	–	–	29.3	–
NC(=O)c1ncn2c(=O)n(CCO)nnc12 [NN-002, 3-(2-Hydroxyethyl)-4-oxo-3,4-dihydroimidazo[5,1-d][1,2,3,5]tetrazine-8-carboxamide]	–	–	–	–	–	–	–	GI50 (Glioma SNB19V (MGMT−)): 200 µM and 210 µM; GI50 (Glioma U373V (MGMT low)): 209 µM and 368 µM; GI50 (Glioma SNB19M (MGMT+)): 396 µM and 437 µM; GI50 (Glioma U373M (MGMT+)): 248 µM and 398 µM
CC(C)n1nnc2c(C(N)=O)ncn2c1=O [PP-001, 3-Isopropyl-8-carbamoylimidazotetrazin-4-one]	–	–	–	–	–	–	–	GI50 (Glioma SNB19V (MGMT−); read-out: GI50): > 1000 µM; GI50 (Glioma U373V (MGMT low); read-out: GI50): 387 µM and 580 µM; GI50 (Glioma SNB19M (MGMT+); read-out: GI50): > 1000 µM and 753 µM; GI50 (Glioma U373M (MGMT+); read-out: GI50): 427 µM and 657 µM
COc1ccc(Cn2nnc3c(C(N)=O)ncn3c2=O)cc1OC [AA-005, 3-(3,4-dimethoxybenzyl)-4-oxo-3,4-dihydroimidazo[5,1-d][1,2,3,5]tetrazine-8-carboxamide]	218	114 µM	197	259	282	232	301	GI50 (Glioma U373M (MGMT+); [2]): 224 µM
Cc1noc(Cn2nnc3c(C(N)=O)ncn3c2=O)n1 [CC-003, 3-(3-Methyl-[1,2,4]oxadiazol-5-ylmethyl)-4-oxo-3,4-dihydro-imidazo[5,1-d][1,2,3,5]tetrazine-8-carboxylic acid amide]	208	176 µM	–	–	198	208	196	GI50 (Glioma U373M (MGMT+); [2]): 391 µM
NC(=O)c1ncn2c(=O)n(CC3CC3)nnc12 [GG-003, 3-Cyclopropylmethyl-8-carbamoylimidazotetrazin-4-one]	–	–	386	–	152	293	–	–
NC(=O)CCn1nnc2c(C(N)=O)ncn2c1=O [JJ-004, 3-(8-Carbamoyl-oxoimidazo[5,1-d][1,2,3,5]tetrazin-3(4H)-yl)propanamide]	348	294 µM	–	–	417	281	–	–
NC(=O)c1ncn2c(=O)n(C3CCNCC3)nnc12 [HH-001, 3-Piperidin-4-yl-8-carbamoylimidazotetrazin-4-one hydrobromide]	167	–	–	–	–	–	72	GI50 (Glioma SNB19V (MGMT−); [3]): 190 µM; GI50 (Glioma U373M (MGMT+); [3]): 115 µM
CC(c1ccc(Br)cc1)n1nnc2c(C(N)=O)ncn2c1=O (racemic) [BB-005, (+/−) 3-(-1-(4-Bromophenyl)ethyl)-8-carbamoylimidazotetrazin-4-one]	42	80.2 µM and 81 µM and 70.2 µM	–	–	–	–	–	–
CC(C)(C)C(=O)OCn1nnc2c(C(N)=O)ncn2c1=O [LL-004, 2,2-Dimethyl-propionic acid 8-carbamoyl-4-oxo-imidazo[5,1-d][1,2,3,5]tetrazin-3-ylmethyl ester]	47.2	35.9 µM and 51.9 µM	–	–	–	–	–	–
